Results reported in patent US12521393B2, “Cytotoxicity targeting chimeras for CCR2-expressing cells” (GLAXOSMITHKLINE INTELLECTUAL PROPERTY DEVELOPMENT LIMITED, priority 2021, dated 2026).
Where a name gives a salt, the structure may show the parent alone.

Each compound was assayed on endogenous target monocytes in human PBMC (assay: PBMC ex vivo monocyte depletion flow cytometry assay (Example 200)). Settings: with anti-cotinine antibody (SEQ ID NO: 11/12), 18-24 hours, EC50 in molar, read-out: Ex Vivo Depletion Assay pEC50 (converted).
Type: cell-based
Experimental: A human PBMC (peripheral blood mononuclear cells) monocyte depletion flow cytometry assay was developed to screen compounds in a 384-well plate format. This assay incorporated endogenous natural killer cells to deplete endogenous target monocytes.
To screen compounds in the human PBMC monocyte depletion flow cytometry assay, 11-point dose-response curves were made from 1 mM stocks in neat DMSO by serially diluting an ARM compound of Formula (I) four-fold into a 384-well plate row-wise. These serially diluted compounds were then stamped into a flat bottom polypropylene 384-well plate (Greiner Bio-One) at 100 nL/well. Fifty microliters of 30 μg/mL anti-cotinine antibody having a heavy chain sequence of SEQ ID NO: 11 and a light chain sequence of SEQ ID NO: 12 (rabbit variable region with human IgG1 Fc domain containing a DE mutation (S239D/1332E)) that had been diluted in assay medium (RPMI 1640 (Gibco) containing 10% fetal bovine serum (Gibco), 1% Glutamax (Gibco) and 1% sodium pyruvate (Corning) was added to the wells of the plate. The plate was centrifuged for 1 min at 500 rpm (revolutions per minute) and then shaken for 5 min at room temperature. The plate was incubated for 15 minutes at 37° C./5% CO2.
Frozen PBMC cells (HemaCare BioResearch) were thawed and centrifuged at 1,200 rpm for 4 minutes. The cells were diluted to a cell density of 2×10^6 cells/mL in assay medium. Fifty microliters of the diluted cells were added to the wells of the plate. The plate was centrifuged for 1 min at 500 rpm and incubated for 18-24 hours at 37° C./5% CO2.
After 18-24 hours incubation, 2 μL of 6.25 μg human FC block (BD Pharmingen) that was diluted in assay medium was added to the wells of the plate. The plate was centrifuged for 1 minute at 500 rpm and then incubated at room temperature for 15 minutes. Five microliters of 750 nM Helix NP NIR (Biolegend) that had been diluted in assay medium was added to the wells of the plate. Nine microliters of antibody cocktail containing 1/5 diluted fluorescein isothiocyanate (FITC) labeled anti-CD45 antibody (Beckman Coulter), PC7 labeled anti-CD14 antibody (Beckman Coulter) and phyocoerythrin (PE) anti-CD4 antibody (Beckman Coulter) was then added to the wells of the plate. The plate was centrifuged for 1 min at 500 rpm and incubated for 30 minutes at 4-8° C. Samples from the plate were run on BD FACS Canto II flow cytometer and data was analyzed using FlowJo software.
ARMs compounds of Formula (I) of the invention were tested for the ability to deplete monocytes in the above assay in one or more experimental runs and the results are shown in Table 3 below. Potency of the compounds of the invention is reported as a pEC50 value. The pEC50 value is the negative log of the EC50 value, wherein the EC50 value is the half maximal effective concentration measured in molar (M). For compounds tested in more than one experimental run, the pEC50 value is reported as an average or as the individual values measured

Row | SMILES | EC50
1 | CC(C)N(C)[C@@H]1CC[C@H](N2CC[C@H](Nc3ncnc4ccc(C(F)(F)F)cc34)C2=O)[C@H](NC(=O)c2cccc(NCCOCCOCCOCCOCCOCCNC(=O)[C@H]3CC(=O)N(C)[C@@H]3c3cccnc3)n2)C1 [Example 124, N-((1R,2S,5R)-5-(Isopropyl(methyl)amino)-2-((S)-2-oxo-3-((6-(trifluoromethyl)quinazolin-4-yl)amino)pyrrolidin-1-yl)cyclohexyl)-6-((1-((2S,3S)-1-methyl-5-oxo-2-(pyridin-3-yl)pyrrolidin-3-yl)-1-oxo-5,8, 11, 14, 17-pentaoxa-2-azanonadecan-19-yl)amino)picolinamide] | 100000 nM
2 | CC(C)N(C)[C@@H]1CC[C@H](N2CC[C@H](Nc3ncnc4ccc(C(F)(F)F)cc34)C2=O)[C@H](NC(=O)c2ccc(NCCOCCOCCOCCOCCNC(=O)[C@H]3CC(=O)N(C)[C@@H]3c3cccnc3)nn2)C1 [Example 125, N-((1R,2S,5R)-5-(Isopropyl(methyl)amino)-2-((S)-2-oxo-3-((6-(trifluoromethyl)quinazolin-4-yl)amino)pyrrolidin-1-yl)cyclohexyl)-6-((1-((2S,3S)-1-methyl-5-oxo-2-(pyridin-3-yl)pyrrolidin-3-yl)-1-oxo-5,8,11,14-tetraoxa-2-azahexadecan-16-yl)amino) pyridazine-3-carboxamide] | 15.8 nM
3 | CC(C)N(C)[C@@H]1CC[C@H](N2CC[C@H](Nc3ncnc4ccc(C(F)(F)F)cc34)C2=O)[C@H](NC(=O)c2ccnc(NCCOCCOCCOCCOCCNC(=O)[C@H]3CC(=O)N(C)[C@@H]3c3cccnc3)c2)C1 [Example 126, N-((1R,2S,5R)-5-(Isopropyl(methyl)amino)-2-((S)-2-oxo-3-((6-(trifluoromethyl)quinazolin-4-yl)amino)pyrrolidin-1-yl)cyclohexyl)-2-((1-((2S,3S)-1-methyl-5-oxo-2-(pyridin-3-yl)pyrrolidin-3-yl)-1-oxo-5,8,11,14-tetraoxa-2-azahexadecan-16-yl)amino)isonicotinamide, 3Trifluoroacetic acid salt] | 2.51 nM
4 | CC(C)N(C)[C@@H]1CC[C@H](N2CC[C@H](Nc3ncnc4ccc(C(F)(F)F)cc34)C2=O)[C@H](NC(=O)c2cc(NCCOCCOCCOCCOCCNC(=O)[C@H]3CC(=O)N(C)[C@@H]3c3cccnc3)ncn2)C1 [Example 127, N-((1R,2S,5R)-5-(Isopropyl(methyl)amino)-2-((S)-2-oxo-3-((6-(trifluoromethyl)quinazolin-4-yl)amino)pyrrolidin-1-yl)cyclohexyl)-6-((1-((2S,3S)-1-methyl-5-oxo-2-(pyridin-3-yl)pyrrolidin-3-yl)-1-oxo-5,8,11, 14-tetraoxa-2-azahexadecan-16-yl)amino) pyrimidine-4-carboxamide] | 2 nM
5 | CC(C)N(C)[C@@H]1CC[C@H](N2CC[C@H](Nc3ncnc4ccc(C(F)(F)F)cc34)C2=O)[C@H](NC(=O)c2ccc(NCCOCCOCCOCCOCCNC(=O)[C@H]3CC(=O)N(C)[C@@H]3c3cccnc3)nc2)C1 [Example 128, N-((1R,2S,5R)-5-(Isopropyl(methyl)amino)-2-((S)-2-oxo-3-((6-(trifluoromethyl)quinazolin-4-yl)amino)pyrrolidin-1-yl)cyclohexyl)-6-((1-((2S,3S)-1-methyl-5-oxo-2-(pyridin-3-yl)pyrrolidin-3-yl)-1-oxo-5,8,11, 14-tetraoxa-2-azahexadecan-16-yl)amino) nicotinamide] | 1.58 nM
6 | CC(C)N(C)[C@@H]1CC[C@H](N2CC[C@H](Nc3ncnc4ccc(C(F)(F)F)cc34)C2=O)[C@H](NC(=O)c2cnn(C3CCN(CCOCCOCCOCCNC(=O)[C@H]4CC(=O)N(C)[C@@H]4c4cccnc4)CC3)c2)C1 [Example 129, N-((1R,2S,5R)-5-(Isopropyl(methyl)amino)-2-((S)-2-oxo-3-((6-(trifluoromethyl)quinazolin-4-yl)amino)pyrrolidin-1-yl)cyclohexyl)-1-(1-(1-((2S,3S)-1-methyl-5-oxo-2-(pyridin-3-yl)pyrrolidin-3-yl)-1-oxo-5,8,11-trioxa-2-azatridecan-13-yl)piperidin-4-yl)-1H-pyrazole-4-carboxamide] | 1.26 nM
7 | CC(C)N(C)[C@@H]1CC[C@H](N2CC[C@H](Nc3ncnc4ccc(C(F)(F)F)cc34)C2=O)[C@H](NC(=O)C2CCC(N3CC(C(=O)NCCOCCOCCNC(=O)[C@H]4CC(=O)N(C)[C@@H]4c4cccnc4)C3)CC2)C1 (stereo partly drawn) [Example 131, (2S,3S)-N-(2-(2-(2-(1-(4-(((1R,2S,5R)-5-(Isopropyl(methyl)amino)-2-((S)-2-oxo-3-((6-(trifluoromethyl)quinazolin-4-yl)amino)pyrrolidin-1-yl)cyclohexyl)carbamoyl)cyclohexyl)azetidine-3-carboxamido)ethoxy)ethoxy)ethyl)-1-methyl-5-oxo-2-(pyridin-3-yl)pyrrolidine-3-carboxamide] | 0.501 nM
8 | CC(C)N(C)[C@@H]1CC[C@H](N2CC[C@H](Nc3ncnc4ccc(C(F)(F)F)cc34)C2=O)[C@H](NC(=O)[C@H]2CC[C@@H](N3CCC(C(=O)NCCOCCOCCNC(=O)[C@H]4CC(=O)N(C)[C@@H]4c4cccnc4)C(F)(F)C3)CC2)C1 (stereo partly drawn) [Example 132, 3,3-Difluoro-1-((1S,4s)-4-(((1R,2S,5R)-5-(isopropyl(methyl)amino)-2-((S)-2-oxo-3-((6-(trifluoromethyl)quinazolin-4-yl)amino)pyrrolidin-1-yl)cyclohexyl)carbamoyl)cyclohexyl)-N-(2-(2-(2-((2S,3S)-1-methyl-5-oxo-2-(pyridin-3-yl)pyrrolidine-3-carboxamido)ethoxy)ethoxy)ethyl)piperidine-4-carboxamide] | 0.631 nM
9 | CC(C)N(C)[C@@H]1CC[C@H](N2CC[C@H](Nc3ncnc4ccc(C(F)(F)F)cc34)C2=O)[C@H](NC(=O)c2ccc([C@H]3CC[C@@H](C(=O)NCCOCCOCCNC(=O)[C@H]4CC(=O)N(C)[C@@H]4c4cccnc4)CC3)cc2)C1 [Example 133, (2S,3S)-N-(2-(2-(2-((1S,4s)-4-(4-(((1R,2S,5R)-5-(Isopropyl(methyl)amino)-2-((S)-2-oxo-3-((6-(trifluoromethyl)quinazolin-4-yl)amino)pyrrolidin-1-yl)cyclohexyl)carbamoyl)phenyl)cyclohexane-1-carboxamido)ethoxy)ethoxy)ethyl)-1-methyl-5-oxo-2-(pyridin-3-yl)pyrrolidine-3-carboxamide] | 1.26 nM
10 | CC(C)N(C)[C@@H]1CC[C@H](N2CC[C@H](Nc3ncnc4ccc(C(F)(F)F)cc34)C2=O)[C@H](NC(=O)[C@H]2CC[C@@H](N3CCC(C(=O)NCCOCCOCCNC(=O)[C@H]4CC(=O)N(C)[C@@H]4c4cccnc4)CC3)CC2)C1 [Example 134, 1-((1S,4s)-4-(((1R,2S,5R)-5-(Isopropyl(methyl)amino)-2-((S)-2-oxo-3-((6-(trifluoromethyl)quinazolin-4-yl)amino)pyrrolidin-1-yl)cyclohexyl)carbamoyl)cyclohexyl)-N-(2-(2-(2-((2S,3S)-1-methyl-5-oxo-2-(pyridin-3-yl)pyrrolidine-3-carboxamido)ethoxy)ethoxy)ethyl)piperidine-4-carboxamide, 3Formic acid salt] | 0.126 nM
11 | CC(C)N(C)[C@@H]1CC[C@H](N2CC[C@H](Nc3ncnc4ccc(C(F)(F)F)cc34)C2=O)[C@H](NC(=O)[C@H]2CC[C@H](N3CCC(C(=O)NCCOCCOCCNC(=O)[C@H]4CC(=O)N(C)[C@@H]4c4cccnc4)CC3)CC2)C1 [Example 135, 1-((1R,4r)-4-(((1R,2S,5R)-5-(Isopropyl(methyl)amino)-2-((S)-2-oxo-3-((6-(trifluoromethyl)quinazolin-4-yl)amino)pyrrolidin-1-yl)cyclohexyl)carbamoyl)cyclohexyl)-N-(2-(2-(2-((2S,3S)-1-methyl-5-oxo-2-(pyridin-3-yl)pyrrolidine-3-carboxamido)ethoxy)ethoxy)ethyl)piperidine-4-carboxamide 3Formic acid salt] | 1.58 nM
12 | CC(C)N(C)[C@@H]1CC[C@H](N2CC[C@H](Nc3ncnc4ccc(C(F)(F)F)cc34)C2=O)[C@H](NC(=O)[C@H]2CC[C@H](c3ccc(C(=O)NCCOCCOCCNC(=O)[C@H]4CC(=O)N(C)[C@@H]4c4cccnc4)cn3)CC2)C1 [Example 139, 6-((1R,4r)-4-(((1R,2S,5R)-5-(Isopropyl(methyl)amino)-2-((S)-2-oxo-3-((6-(trifluoromethyl)quinazolin-4-yl)amino)pyrrolidin-1-yl)cyclohexyl)carbamoyl)cyclohexyl)-N-(2-(2-(2-((2S,3S)-1-methyl-5-oxo-2-(pyridin-3-yl)pyrrolidine-3-carboxamido)ethoxy)ethoxy)ethyl)nicotinamide] | 5.01 nM
